Test results published in the supplement of paper PMC11208160.

Test: recombinant UMI read abundance after kanamycin selection (control-corrected) (log10(CPM+1)); higher = more efficient recombination; extreme values may be limits of the assay; sequences stand for … in AGTGCAGAGAAAATCGGCCAGTTTTCTCTGCCTGCAGTCCGCATGCCGTGGGACCCCTTGGGTTCTAACCTGTTGCCTAGATTTATGCAGCGGACTGCCTTTCTCCCAAAGTGATAAACCGG…AGGTTGGTTTCACT; site = the 11-nt donor
In short: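 After plating on IPTG (0.07 mM) plus kanamycin, or unselected, in two replicates, recombinant UMIs were PCR-amplified across the donor–target junction and sequenced. The cells were Escherichia coli co-electroporated with a UMI-tagged donor and donor-binding-loop pair library and a target plasmid with a fixed target and T7-inducible IS621 bridge recombinase. Values are log10(CPM+1), with CPM averaged over replicates and scaled by control-derived factors.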
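Also: IS621 bridge recombinase in Escherichia coli cells against a fixed T5 target plasmid.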

Compared with “GGTGTGGCATGGACCGGTTTTCCCGGTAATCCGTATTTGTT (site GGTGTGGCTAA)”, “GGTGTTTCATGGACCGGTTTTCCCGGTAATCCGTATTTGGT (site GGTGTTTCTAC)” is lower in “recombinant UMI read abundance (log10)” value: 0.894 for the first, 0.556 for the second.

First: GGTTAAACATGGACCGGTTTTCCCGGTAATCCGTATTTGGT (site GGTTAAACTAC)
Second: GGTTAGGCATGGACCGGTTTTCCCGGTAATCCGTATTTGAG (site GGTTAGGCTCT)
The “recombinant UMI read abundance (log10)” value of the first is lower: 0.137 for the first, 0.952 for the second.

“GGTTATCCATGGACCGGTTTTCCCGGTAATCCGTATTTGCT (site GATTATCCTAG)” and “GGTTATCCATGGACCGGTTTTCCCGGTAATCCGTATTTGCT (site GCTTATCCTAG)” are within 0.2 log units of each other in “recombinant UMI read abundance (log10)” value: 0 for the first, 0.196 for the second.

“GGTTATCCATGGACCGGTTTTCCCGGTAATCCGTATTTGCT (site GGTTATCCTAG)” and “GGTTATCCATGGACCGGTTTTCCCGGTAATCCGTATTTGCT (site GTTTATCCTAG)” are the same in “recombinant UMI read abundance (log10)” value: 0 for the first, 0 for the second.

“GGTTCGCCATGGACCGGTTTTCCCGGTAATCCGTATTTGCG (site GGTTCGCCTCG)” and “GGTTGCCCATGGACCGGTTTTCCCGGTAATCCGTATTTGAT (site GATTGCCCTAT)” are within 0.2 log units of each other in “recombinant UMI read abundance (log10)” value: 0 for the first, 0.0175 for the second.

“GGTTGCCCATGGACCGGTTTTCCCGGTAATCCGTATTTGAT (site GCTTGCCCTAT)” and “GGTTGCCCATGGACCGGTTTTCCCGGTAATCCGTATTTGAT (site GGTTGCCCTAT)” are within 0.2 log units of each other in “recombinant UMI read abundance (log10)” value: 0.0066 for the first, 0.0592 for the second.

“GGTTGCCCATGGACCGGTTTTCCCGGTAATCCGTATTTGAT (site GTTTGCCCTAT)” and “GGTTTACCATGGACCGGTTTTCCCGGTAATCCGTATTTGGG (site GGTTTACCTCC)” are within 0.2 log units of each other in “recombinant UMI read abundance (log10)” value: 0.0119 for the first, 0.0308 for the second.

Compared with “GTAAAAGCATGGACCGGTTTTCCCGGTAATCCGTATTTGCC (site GTAAAAGCTGG)”, “GTAAAGTCATGGACCGGTTTTCCCGGTAATCCGTATTTGCA (site GTAAAGTCTTG)” is higher in “recombinant UMI read abundance (log10)” value: 1.27 for the first, 2.95 for the second.

Compared with “GTAACTCCATGGACCGGTTTTCCCGGTAATCCGTATTTGTC (site GTAACTCCTGA)”, “GTAAGAACATGGACCGGTTTTCCCGGTAATCCGTATTTGGC (site GTAAGAACTGC)” is higher in “recombinant UMI read abundance (log10)” value: 1.71 for the first, 2.33 for the second.

Compared with “GTAAGAACATGGACCGGTTTTCCCGGTAATCCGTATTTGGC (site GTCAGAACTGC)”, “GTAAGAACATGGACCGGTTTTCCCGGTAATCCGTATTTGGC (site GTGAGAACTGC)” is higher in “recombinant UMI read abundance (log10)” value: 0 for the first, 1.09 for the second.

Going from “GTAAGAACATGGACCGGTTTTCCCGGTAATCCGTATTTGGC (site GTTAGAACTGC)” to “GTAAGCCCATGGACCGGTTTTCCCGGTAATCCGTATTTGTC (site GTAAGCCCTGA)”, the “recombinant UMI read abundance (log10)” value rises from 1.13 to 1.98.

Going from “GTAAGCGCATGGACCGGTTTTCCCGGTAATCCGTATTTGGC (site GTAAGCGCTGC)” to “GTAAGTACATGGACCGGTTTTCCCGGTAATCCGTATTTGGA (site GTAAGTACTTC)”, the “recombinant UMI read abundance (log10)” value falls from 3.26 to 1.17.

Compared with “GTAATAACATGGACCGGTTTTCCCGGTAATCCGTATTTGGC (site GTAATAACTGC)”, “GTAATACCATGGACCGGTTTTCCCGGTAATCCGTATTTGCA (site GTAATACCTTG)” is lower in “recombinant UMI read abundance (log10)” value: 2.43 for the first, 0 for the second.

Compared with “GTAATCGCATGGACCGGTTTTCCCGGTAATCCGTATTTGCG (site GTAATCGCTCG)”, “GTAATCGCATGGACCGGTTTTCCCGGTAATCCGTATTTGCG (site GTACTCGCTCG)” is lower in “recombinant UMI read abundance (log10)” value: 1.95 for the first, 0.0396 for the second.

“GTAATCGCATGGACCGGTTTTCCCGGTAATCCGTATTTGCG (site GTAGTCGCTCG)” and “GTAATCGCATGGACCGGTTTTCCCGGTAATCCGTATTTGCG (site GTATTCGCTCG)” are within 0.2 log units of each other in “recombinant UMI read abundance (log10)” value: 0.00978 for the first, 0.00488 for the second.

Compared with “GTAATGGCATGGACCGGTTTTCCCGGTAATCCGTATTTGAA (site GTAATGGCTTT)”, “GTAATTTCATGGACCGGTTTTCCCGGTAATCCGTATTTGCA (site GTAATTTCTTG)” is lower in “recombinant UMI read abundance (log10)” value: 2.26 for the first, 1.4 for the second.

“GTACACGCATGGACCGGTTTTCCCGGTAATCCGTATTTGCT (site GTACACGCTAG)” and “GTACATTCATGGACCGGTTTTCCCGGTAATCCGTATTTGAT (site GTACATTCTAT)” are within 0.2 log units of each other in “recombinant UMI read abundance (log10)” value: 2.16 for the first, 2.04 for the second.

Compared with “GTACGCCCATGGACCGGTTTTCCCGGTAATCCGTATTTGAT (site GTACGCCCTAT)”, “GTACGCCCATGGACCGGTTTTCCCGGTAATCCGTATTTGCA (site GTACGCCCTTG)” is higher in “recombinant UMI read abundance (log10)” value: 0.747 for the first, 1.16 for the second.

First: GTACGCTCATGGACCGGTTTTCCCGGTAATCCGTATTTGAA (site GTACGCTCTTT)
Second: GTACTAACATGGACCGGTTTTCCCGGTAATCCGTATTTGGC (site GTACTAACTGC)
The “recombinant UMI read abundance (log10)” value of the first is lower: 2.11 for the first, 2.4 for the second.

Compared with “GTACTACCATGGACCGGTTTTCCCGGTAATCCGTATTTGTG (site GTACTACCTCA)”, “GTACTCGCATGGACCGGTTTTCCCGGTAATCCGTATTTGTC (site GTACTCGCTGA)” is higher in “recombinant UMI read abundance (log10)” value: 0.00602 for the first, 2.42 for the second.

Compared with “GTAGATACATGGACCGGTTTTCCCGGTAATCCGTATTTGCC (site GTAGATACTGG)”, “GTAGCGACATGGACCGGTTTTCCCGGTAATCCGTATTTGAG (site GTAGCGACTCT)” is higher in “recombinant UMI read abundance (log10)” value: 0 for the first, 1.28 for the second.

Compared with “GTAGGAACATGGACCGGTTTTCCCGGTAATCCGTATTTGAC (site GTAGGAACTGT)”, “GTAGGAACATGGACCGGTTTTCCCGGTAATCCGTATTTGAC (site GTAGGCACTGT)” is lower in “recombinant UMI read abundance (log10)” value: 2.59 for the first, 1.3 for the second.

Going from “GTAGGAACATGGACCGGTTTTCCCGGTAATCCGTATTTGAC (site GTAGGGACTGT)” to “GTAGGAACATGGACCGGTTTTCCCGGTAATCCGTATTTGAC (site GTAGGTACTGT)”, the “recombinant UMI read abundance (log10)” value falls from 2.24 to 1.56.

Going from “GTAGGCACATGGACCGGTTTTCCCGGTAATCCGTATTTGAC (site GTAGGAACTGT)” to “GTAGGCACATGGACCGGTTTTCCCGGTAATCCGTATTTGAC (site GTAGGCACTGT)”, the “recombinant UMI read abundance (log10)” value rises from 1.1 to 2.05.

“GTAGGCACATGGACCGGTTTTCCCGGTAATCCGTATTTGAC (site GTAGGGACTGT)” and “GTAGGCACATGGACCGGTTTTCCCGGTAATCCGTATTTGAC (site GTAGGTACTGT)” are within 0.2 log units of each other in “recombinant UMI read abundance (log10)” value: 0 for the first, 0.00895 for the second.

“GTAGGTACATGGACCGGTTTTCCCGGTAATCCGTATTTGAC (site ATAGGTACTGT)” and “GTAGGTACATGGACCGGTTTTCCCGGTAATCCGTATTTGAC (site CTAGGTACTGT)” are within 0.2 log units of each other in “recombinant UMI read abundance (log10)” value: 2.02 for the first, 1.95 for the second.

First: GTAGGTACATGGACCGGTTTTCCCGGTAATCCGTATTTGAC (site GAAGGTACTGT)
Second: GTAGGTACATGGACCGGTTTTCCCGGTAATCCGTATTTGAC (site GCAGGTACTGT)
The “recombinant UMI read abundance (log10)” value of the first is lower: 0 for the first, 0.704 for the second.

Compared with “GTAGGTACATGGACCGGTTTTCCCGGTAATCCGTATTTGAC (site GGAGGTACTGT)”, “GTAGGTACATGGACCGGTTTTCCCGGTAATCCGTATTTGAC (site GTAAGTACTGT)” is higher in “recombinant UMI read abundance (log10)” value: 0 for the first, 1.98 for the second.

Going from “GTAGGTACATGGACCGGTTTTCCCGGTAATCCGTATTTGAC (site GTACGTACTGT)” to “GTAGGTACATGGACCGGTTTTCCCGGTAATCCGTATTTGAC (site GTAGATACTGT)”, the “recombinant UMI read abundance (log10)” value rises from 0.584 to 1.54.

Going from “GTAGGTACATGGACCGGTTTTCCCGGTAATCCGTATTTGAC (site GTAGCTACTGT)” to “GTAGGTACATGGACCGGTTTTCCCGGTAATCCGTATTTGAC (site GTAGGAACTGT)”, the “recombinant UMI read abundance (log10)” value rises from 0.853 to 1.59.

First: GTAGGTACATGGACCGGTTTTCCCGGTAATCCGTATTTGAC (site GTAGGCACTGT)
Second: GTAGGTACATGGACCGGTTTTCCCGGTAATCCGTATTTGAC (site GTAGGGACTGT)
The “recombinant UMI read abundance (log10)” value of the first is higher: 2.64 for the first, 1.8 for the second.

Compared with “GTAGGTACATGGACCGGTTTTCCCGGTAATCCGTATTTGAC (site GTAGGTACTAT)”, “GTAGGTACATGGACCGGTTTTCCCGGTAATCCGTATTTGAC (site GTAGGTACTCT)” is lower in “recombinant UMI read abundance (log10)” value: 2.23 for the first, 0.304 for the second.

Compared with “GTAGGTACATGGACCGGTTTTCCCGGTAATCCGTATTTGAC (site GTAGGTACTGA)”, “GTAGGTACATGGACCGGTTTTCCCGGTAATCCGTATTTGAC (site GTAGGTACTGC)” is higher in “recombinant UMI read abundance (log10)” value: 1.23 for the first, 1.5 for the second.

First: GTAGGTACATGGACCGGTTTTCCCGGTAATCCGTATTTGAC (site GTAGGTACTGG)
Second: GTAGGTACATGGACCGGTTTTCCCGGTAATCCGTATTTGAC (site GTAGGTACTGT)
The “recombinant UMI read abundance (log10)” value of the first is lower: 0.351 for the first, 2.01 for the second.
